Results on 26 molecules are retold here after patent publication US8552022B2, “Substituted cyclopropyl compounds, compositions containing such compounds and methods of treatment” (Merck Sharp & Dohme Corp., priority 2009, dated 2013).

A value given as a limit tells only on which side of the number the result lay.

A word on the EC50: it is the concentration that produces a half-maximal response.

For this assay, the target named is T1, GPR119 (UniProt Q8TDV5, S309L, species not given).
T1 sequence (Q8TDV5 1-335 S309L): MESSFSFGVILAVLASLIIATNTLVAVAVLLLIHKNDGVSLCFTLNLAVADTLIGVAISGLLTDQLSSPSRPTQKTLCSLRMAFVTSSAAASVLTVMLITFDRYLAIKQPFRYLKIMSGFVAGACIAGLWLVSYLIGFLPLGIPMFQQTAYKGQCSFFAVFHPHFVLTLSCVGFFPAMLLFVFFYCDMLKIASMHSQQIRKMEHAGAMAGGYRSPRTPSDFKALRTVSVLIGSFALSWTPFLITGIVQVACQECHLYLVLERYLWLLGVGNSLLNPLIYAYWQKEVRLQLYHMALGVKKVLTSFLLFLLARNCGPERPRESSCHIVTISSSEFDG
As to the kind of experiment: GPR119 signaling, cyclic AMP (cAMP) HTRF assay. In kind it is cell-based, human (S309L variant) or murine. The note with it: CHO cells with Gα15 and murine GPR119 or HEK293 Flp-In cells with human GPR119 S309L, read-out: EC50 (agonist activation of GPR119, cAMP). From the text: The title compound was synthesized using 2-{2-[1-(5-chloropyrimidin-2-yl)piperidin-4-yl]cyclopropyl}ethyl 4-methylbenzenesulfonate from step 1 of this example by a general procedure analogous that described in Example 59. LRMS calc: 424.9; obs: 425.01 (M+1). Measurement of GPR119Signaling Using a Cyclic AMP (cAMP) Homogenous Time Resolved Fluorescence (HTRF) Assay
Chinese hamster ovary (CHO) cell lines stably transfected with the permissive guanine nucleotide binding protein alpha 15 (Gα15) and murine GPR119 were maintained in DMEM media containing FBS, penicillin-streptomycin, puromycin, and G418 (geneticin). Alternatively, human embryonic kidney (HEK)293 Flp-In cells (Invitrogen, Carlsbad, Calif.) were stably transfected with a human SNP variant (S309L) of GPR119 and maintained in DMEM media containing FBS, penicillin-streptomycin, and hygromycin. Agonist activation of the GPR119 receptor was measured in receptor transfected cells described above, treated with compounds of this invention, using a commercial homogenous time resolved fluorescence (HTRF) kit for measurement of cAMP (CisBio, Bedford, Mass.). The assay was performed in 96-well half-volume plates (murine) or 384-well plates (human) following the manufacturers instructions. Briefly, suspended cells were incubated with a dose titration of test compound at room temperature for 60 min, lysed, and incubated with HTRF reagents for an additional 60 min. The plate was read using an Envision multilabel reader (Perkin Elmer) adjusted to read time resolved fluorescence and the cAMP concentrations were extrapolated from a cAMP calibration curve. […] The concentration of test compound required to stimulate a half-maximal response (EC50), and efficacy as compared to an internal agonist control, was determined from a sigmoidal 4-parameter curve fit of the resulting plot of normalized activity versus compound concentration.
A general note: Time-resolved FRET reads energy transfer from a long-lived donor to a nearby acceptor.

`CN1C(=O)Cc2cc(NCC[C@@H]3C[C@@H]3C3CCN(c4ncc(Cl)cn4)CC3)ccc21` [Ex 51, 5-[(2-{(1S,2S)-2-[1-(5-chloropyrimidin-2-yl)piperidin-4-yl]cyclopropyl}ethyl)amino]-1-methyl-1,3-dihydro-2H-indol-2-one]: the half-maximal effective concentration (EC50) was under 10 nM.
As for `CN(CC[C@@H]1C[C@@H]1C1CCN(c2ncc(Cl)cn2)CC1)c1ccc(S(C)(=O)=O)cc1` [Ex 9, N-(2-{(1S,2S)-2-[1-(5-chloropyrimidin-2-yl)piperidin-4-yl]cyclopropyl}ethyl)-N-methyl-4-(methylsulfonyl)aniline], the EC50 lay within 50 to 200 nM.
As for `CC(C)(C)C(=O)Nc1ccc(NCC[C@@H]2C[C@@H]2C2CCN(c3ncc(Cl)cn3)CC2)cn1` [Ex 56, N-{5-[(2-{(1S,2S)-2-[1-(5-chloropyrimidin-2-yl)piperidin-4-yl]cyclopropyl}ethyl)amino]pyridin-2-yl}-2,2-dimethyl propanamide], the figure is under 10 nM; as for `Clc1cnc(N2CCC([C@@H]3C[C@H]3CCNc3ccc(-n4cncn4)nc3)CC2)nc1` (single isomer, unassigned) [Ex 62, trans N-(2-{2-[1-(5-chloropyrimidin-2-yl)piperidin-4-yl]cyclopropyl}ethyl)-6-(1H-1,2,4-triazol-1-yl)pyridin-3-amine], 10 to 50 nM; as for `CC(=O)Nc1cnc(NCC[C@@H]2C[C@@H]2C2CCN(c3ncc(Cl)cn3)CC2)cc1C` [Ex 34, N-{6-[(2-{(1S,2S)-2-[1-(5-chloropyrimidin-2-yl)piperidin-4-yl]cyclopropyl}ethyl)amino]-4-methylpyridin-3-yl}acetamide], 10 to 50 nM.
As for `CC1(C(=O)Nc2ccc(NCC[C@@H]3C[C@@H]3C3CCN(c4ncc(Cl)cn4)CC3)nc2)CC1` [Ex 37, N-{6-[(2-{(1S,2S)-2-[1-(5-chloropyrimidin-2-yl)piperidin-4-yl]cyclopropyl}ethyl)amino]pyridin-3-yl}-1-methylcyclopropanecarboxamide], the figure is under 10 nM.
For `Clc1cnc(N2CCC([C@H]3C[C@H]3CCNc3ccc4cn[nH]c4c3)CC2)nc1` [Ex 57, N-(2-{(1S,2S)-2-[1-(5-chloropyrimidin-2-yl)piperidin-4-yl]cyclopropyl}ethyl)-1H-indazol-6-amine], the EC50 is under 10 nM.
With `Clc1cnc(N2CCC([C@H]3C[C@H]3CCNc3ccc(-n4cnnn4)nc3)CC2)nc1` [Ex 15, N-(2-{(1S,2S)-2-[1-(5-chloropyrimidin-2-yl)piperidin-4-yl]cyclopropyl}ethyl)-6-(1H-tetrazol-1-yl)pyridin-3-amine], the EC50 was under 10 nM.
As for `Clc1cnc(N2CCC([C@H]3C[C@H]3CCNc3ccc(-n4nccn4)nc3)CC2)nc1` [Ex 19, N-(2-{(1S,2S)-2-[1-(5-chloropyrimidin-2-yl)piperidin-4-yl]cyclopropyl}ethyl)-6-(2H-1,2,3-triazol-2-yl)pyridin-3-amine], the figure is 10 to 50 nM.
As to `Cc1cc(NC(=O)C(C)(C)C)cnc1NCC[C@@H]1C[C@@H]1C1CCN(c2ncc(Cl)cn2)CC1` [Ex 28, N-{6-[(2-{(1S,2S)-2-[1-(5-chloropyrimidin-2-yl)piperidin-4-yl]cyclopropyl}ethyl)amino]-5-methylpyridin-3-yl}-2,2-dimethylpropanamide], the EC50 was under 10 nM.
With `Cc1cc(NCC[C@@H]2C[C@@H]2C2CCN(c3ncc(Cl)cn3)CC2)cnc1NC(=O)C1(C)CC1` [Ex 39], the EC50 is under 10 nM.
In the case of `CC(=O)Nc1ccc(NCC[C@@H]2C[C@@H]2C2CCN(c3ncc(Cl)cn3)CC2)cn1` [Ex 55, N-{5-[(2-{(1S,2S)-2-[1-(5-chloropyrimidin-2-yl)piperidin-4-yl]cyclopropyl}ethyl)amino]pyridin-2-yl}acetamide], the EC50 was under 10 nM.
On to `CS(=O)(=O)c1ccc(NCC[C@@H]2C[C@@H]2C2CCN(c3ncc(Cl)cn3)CC2)cc1` [Ex 7, N-(2-{(1S,2S)-2-[1-(5-chloropyrimidin-2-yl)piperidin-4-yl]cyclopropyl}ethyl)-4-(methylsulfonyl)aniline], for which the EC50 is under 10 nM.
With `Clc1cnc(N2CCC([C@H]3C[C@H]3CCNc3ccc(-n4cncn4)nc3)CC2)nc1` [Ex 14, N-(2-{(1S,2S)-2-[1-(5-chloropyrimidin-2-yl)piperidin-4-yl]cyclopropyl}ethyl)-6-(1H-1,2,4-triazol-1-yl)pyridin-3-amine], the concentration for a half-maximal effect (EC50) is under 10 nM.
As to `O=C1c2ccc(NCC[C@@H]3C[C@@H]3C3CCN(c4ncc(Cl)cn4)CC3)cc2CN1C1CC1` [Ex 46, 5-[(2-{(1S,2S)-2-[1-(5-chloropyrimidin-2-yl)piperidin-4-yl]cyclopropyl}ethyl)amino]-2-cyclopropylisoindolin-1-one], the EC50 was under 10 nM.
As for `CC(=O)Nc1cnc(NCC[C@@H]2C[C@@H]2C2CCN(c3ncc(Cl)cn3)CC2)c(C)c1` [Ex 33, N-{6-[(2-{(1S,2S)-2-[1-(5-chloropyrimidin-2-yl)piperidin-4-yl]cyclopropyl}ethyl)amino]-5-methylpyridin-3-yl}acetamide], the figure is 10 to 50 nM; as for `CS(=O)(=O)c1ccc(NCC[C@@H]2C[C@H]2C2CCN(c3ncc(Cl)cn3)CC2)cc1` (single isomer, unassigned) [Ex 60, trans N-(2-{2-[1-(5-chloropyrimidin-2-yl)piperidin-4-yl]cyclopropyl}ethyl)-4-(methylsulfonyl)aniline], 50 to 200 nM.
Regarding `Clc1cnc(N2CCC([C@H]3C[C@H]3CCNc3ccc(-n4cnnn4)cc3)CC2)nc1` [Ex 10, N-(2-{(1S,2S)-2-[1-(5-chloropyrimidin-2-yl)piperidin-4-yl]cyclopropyl}ethyl)-4-(1H-tetrazol-1-yl)aniline], the EC50 was under 10 nM.
As for `Clc1cnc(N2CCC([C@H]3C[C@H]3CCNc3ccc(-n4cncn4)cc3)CC2)nc1` [Ex 11, N-(2-{(1S,2S)-2-[1-(5-chloropyrimidin-2-yl)piperidin-4-yl]cyclopropyl}ethyl)-4-(1H-1,2,4-triazol-1-yl)aniline], the figure is under 10 nM; as for `CN1Cc2cc(NCC[C@@H]3C[C@@H]3C3CCN(c4ncc(Cl)cn4)CC3)ccc2C1=O` [Ex 45, 5-[(2-{(1S,2S)-2-[1-(5-chloropyrimidin-2-yl)piperidin-4-yl]cyclopropyl}ethyl)amino]-2-methylisoindolin-1-one], 10 to 50 nM; as for `Cc1nc(C#N)cc(NCC[C@@H]2C[C@@H]2C2CCN(c3ncc(Cl)cn3)CC2)n1` [Ex 5, 6-[(2-{(1S,2S)-2-[1-(5-chloropyrimidin-2-yl)piperidin-4-yl]cyclopropyl}ethyl)amino]-2-methylpyrimidine-4-carbonitrile], 10 to 50 nM.
As to `O=C1Cc2cc(NCC[C@@H]3C[C@@H]3C3CCN(c4ncc(Cl)cn4)CC3)ccc2N1` [Ex 50, 5-[(2-{(1S,2S)-2-[1-(5-chloropyrimidin-2-yl)piperidin-4-yl]cyclopropyl}ethyl)amino]-1,3-dihydro-2H-indol-2-one], the EC50 fell in the range of 10 to 50 nM.
As to `CC(C)(C)C(=O)Nc1ccc(NCC[C@@H]2C[C@@H]2C2CCN(c3ncc(Cl)cn3)CC2)nc1` [Ex 30, N-{6-[(2-{(1S,2S)-2-[1-(5-chloropyrimidin-2-yl)piperidin-4-yl]cyclopropyl}ethyl)amino]pyridin-3-yl}-2,2-dimethyl propanamide], the EC50 was under 10 nM.
As to `Cc1cc(-n2cnnn2)cnc1NCC[C@@H]1C[C@@H]1C1CCN(c2ncc(Cl)cn2)CC1` [Ex 36, N-(2-{(1S,2S)-2-[1-(5-chloropyrimidin-2-yl)piperidin-4-yl]cyclopropyl}ethyl)-3-methyl-5-(1H-tetrazol-1-yl)pyridin-2-amine], the EC50 was under 10 nM.
`CC(=O)Nc1ccc(NCC[C@@H]2C[C@@H]2C2CCN(c3ncc(Cl)cn3)CC2)nc1` [Ex 35, N-{6-[(2-{(1S,2S)-2-[1-(5-chloropyrimidin-2-yl)piperidin-4-yl]cyclopropyl}ethyl)amino]pyridin-3-yl}acetamide]: the EC50 fell in the range of 10 to 50 nM.
Regarding `Cc1nc(C#N)cc(NCC[C@H]2C[C@@H]2C2CCN(c3ncc(Cl)cn3)CC2)n1` (relative stereo) [Ex 61, trans 6-[(2-{2-[1-(5-chloropyrimidin-2-yl)piperidin-4-yl]cyclopropyl}ethyl)amino]-2-methylpyrimidine-4-carbonitrile], the EC50 was under 10 nM.
